Assay [1] in a line: DPPH radical scavenging assay (antioxidant activity). The following applies: Table S33, positive control ascorbic acid. The source says: The procedures of the DPPH radical scavenging test were the same as Zhong. Ascorbic acid was used as the positive control.
On the technique in general: Loss of DPPH colour is used to gauge radical scavenging.

The next assay deals with Bacillus subtilis BS01. Nature of the assay: Antibacterial assay (MIC), B. subtilis. It counts as cell-based. Particulars: Table S32, positive control ciprofloxacin. The source says: (§1) The bacteria Vibrio alginolyticus XSBZ14, Enterococcus faecalis ATCC 29212, Acinetobacter baumannii ATCC 19606, Escherichia coli ATCC 25922, Bacillus subtilis BS01, Klebsiella pneumoniae ATCC 13883, Exiguobacterium profundum Staphylococcus aureus ATCC 29213 and MRSA 107352 were used to measure antibacterial activity. The procedures of the antibacterial test were the same as Zhang. Ciprofloxacin was used as the positive control.

Assay [2] deals with Exiguobacterium profundum. Briefly: Antibacterial assay (MIC), E. profundum. Particulars: Table S32, positive control ciprofloxacin. The format is cell-based.
Source text: as §1

In assay [3] the test system is Enterococcus faecalis ATCC 29212. Nature of the assay: Antibacterial assay (MIC), E. faecalis. It counts as cell-based. Particulars: ATCC29212, Table S32, positive control ciprofloxacin.
Source text: as §1

For assay [4], the system named is Acinetobacter baumannii ATCC 19606. Briefly: Antibacterial assay (MIC), A. baumannii. It counts as cell-based. Particulars: ATCC19606, Table S32, positive control ciprofloxacin.
Source text: as §1

Assay [5] relates to Staphylococcus aureus ATCC 29213. Nature of the assay: Antibacterial assay (MIC), S. aureus. It counts as cell-based. Particulars: ATCC29213, Table S32, positive control ciprofloxacin.
Source text: as §1

A further assay relates to MRSA 107352. Briefly: Antibacterial assay (MIC), MRSA. The format is cell-based. The following applies: Staphylococcus aureus, Table S32, positive control ciprofloxacin.
Source text: as §1

Assay [6] has as its system six bacteria (B. subtilis, E. profundum, E. faecalis, S. aureus, MRSA, A. baumannii). Briefly: Antibacterial assay, summary over the sensitive bacteria. It counts as cell-based.
Source text: as §1

Values after ≈ are worked out from the molar mass of the structure shown. Some results are limits rather than exact numbers.

Regarding `O=C1O[C@H]([C@@H](O)CO)C(O)=C1O` [Ascorbic acid, reference compound], in assay [1], 16.7 ± 0.7 µM corresponded to half-maximal inhibition (IC50).

On to `CCC(C)C=C(C)C=CC(=O)Cc1cc(O)c(C)c(O)c1C(=O)O` (stereo not shown) [Compound 1, subversin A], for which the MIC – broadly, the lowest concentration found to suppress growth – in the assay with Bacillus subtilis BS01 was above 200 µM; in assay [2], 100 µM (≈ 33.2 µg/mL); in assay [3], above 200 µM; in assay [4], above 200 µM; in assay [5], above 200 µM; against MRSA 107352 it was above 200 µM.

Take `Cc1cc(O)cc2oc3cc(O)cc(C)c3c12` [Compound 10, 3,7-dihydroxy-1,9-dimethyldibenzofuran]: the minimal inhibitory concentration (MIC) in the assay on Bacillus subtilis BS01 came to 0.1 µM (≈ 0.0228 µg/mL); in assay [2] it was 25 µM (≈ 5.71 µg/mL); in assay [3] it was 25 µM (≈ 5.71 µg/mL); in assay [4], 50 µM (≈ 11.4 µg/mL); in assay [5] it was 25 µM (≈ 5.71 µg/mL); in the assay with MRSA 107352 it was 12.5 µM (≈ 2.85 µg/mL). Also, in assay [6] (range over six inhibited bacteria), the MIC was in the range of 0.1 to 50 µM (≈ 0.0228 to 11.4 µg/mL). In assay [1], the IC50 (usually the point on the concentration scale where inhibition reaches its midpoint) was found to be 48.9 ± 9.8 µM. Moreover, the “inhibitory activity against bacteria (in words)” value in assay [6] (five Gram-positive bacteria (B. subtilis, E. profundum, E. faecalis, S. aureus and MRSA) and one Gram-negative bacterium (A. baumannii)) is listed as “displayed inhibitory activity”.

Take `COc1c(O)cc(C)cc1Oc1cc(C)cc(O)c1` [Compound 11, 2-methoxyl cordyol C]: the MIC against Bacillus subtilis BS01 was above 200 µM; in assay [2], 100 µM (≈ 26 µg/mL); in assay [3], above 200 µM; in assay [4] it was above 200 µM; in assay [5], above 200 µM; against MRSA 107352 it was above 200 µM.

Regarding `O=C(O)c1cn(C2CC2)c2cc(N3CCNCC3)c(F)cc2c1=O` [ciprofloxacin, Ciprofloxacin, reference compound], the MIC against Bacillus subtilis BS01 came out at 0.03 µM (≈ 0.00994 µg/mL); in assay [2], 0.2 µM (≈ 0.0663 µg/mL); in assay [3] it was 0.8 µM (≈ 0.265 µg/mL); in assay [4], 0.4 µM (≈ 0.133 µg/mL); in assay [5] it was 0.8 µM (≈ 0.265 µg/mL); against MRSA 107352, 1.6 µM (≈ 0.53 µg/mL).

The values are drawn from paper PMC10971832, “New Phenol Derivatives from the Haima Cold Seep-Derived Fungus Aspergillus subversicolor CYH-17” (Marine Drugs, 2024).
